Where two headings read alike, the source gives them in different places. [ ]: non-standard residue; d: D form. Sar = CNCC(=O)O
What was measured:
[1] = biological target: opioid μ-receptors located on GPI (Cavia porcellus, UniProt A0ACM8Q262); experiment: Inhibition of electrically stimulated contractions of isolated guinea pig ileum (GPI); format: cell-based; set-up: amplitude: unit not given here
Protocol: Effect was assessed by ability to inhibit the contraction caused by electrical stimulation of isolated organs—guinea pig ileum (GPI). Work was carried out on a special apparatus for testing substances for opioid activity on the model of guinea pig ileum. GPI, taken from nonlinear animals were placed in a 10 ml volumetric flask with electrodes inserted containing Krebs solution at 34° C. in a water bath (HOECHST Organbad, Germany) with a thermostat for maintaining a constant temperature in the working cell. The lower end of the GPI is fixed to the vessel at the bottom. The upper end of the ligature was attached to the sensor strength registration device (sensors isometric registration K-30, “Hugo Sachs Elektronik KG”, Germany). The initial tension of the organs was 1 gram. The solution with placed in GPI was being constantly aerated. GPI segments were equilibrated in the Krebs solution for one hour.
GPI contractions were stimulated by plate electrodes with electrical impulses in a series of four rectangular pulses each lasting 0.5 ms and with 1.5 ms intervals, with delays at 7.5 sec. between the series and voltage 80V using a generator of electric impulses (type 215/I, Hugo Sachs Elektronik, Germany). Registration was performed in isometric contraction mode using K30 sensors via two channel amplifiers MS 6601 (“Watanabe”, Japan).
At the beginning stimulation was applied for a minimum of 45 minutes, which allowed reproducible responses to be established.
The tested substance was administered in a solution bathing the organs in a volume of 0.005 to 0.015 ml, to final concentrations of 1×10^−9-1×10^−6 M. Each subsequent introduction of the substance was done 1 minute after the previous dose without washing the organs, on a cumulative basis. […] Active substances were expressed on an indicator pD2 (numerically equal to the negative decimal logarithm of the concentration of a substance that causes 50% of the maximum effect). In other words, the potency of the opioid receptor agonists in the absence and presence of the antagonist was assessed as the negative logarithm of the concentration required to cause 50% of the maximum response (pD2) using the logistic equation described by DeLean A. et al.
During the experiment, the change in GPI amplitude contractions was taken into account and was fixed. Parallel monitoring in 4 chambers with GPI segments for each substance was used.

[2] = test system: mice; conditions: subcutaneously to mice, acute pain, ringer solution; application JPS6054400; cited from earlier work
[3] = test system: mice; experiment: Open field test and toxicity of high doses in mice; format: in vivo; conditions: open field, 20 EC50 doses (120 mg/kg)
Protocol: Testing of the influence of the injectable substance based on tetrapeptide (as in example 2) H-Tyr-D-Arg-Phe-Gly-NH2 on the behavior of animals, was provided in the study of the toxicity of high doses of the “open field” test and maintaining balance on a horizontal rod.
The aim of the experiment was to identify an effective dose of the substance that affects the behavior of the animals. It was tested on several animals after administration of different doses of peptide compound.
The experimental and control groups of male mice were taken from the same batch, about the same weight (22-24 g).
The substance was injected intraperitoneally in identical weight amounts to laboratory animals in the experimental and control groups, respectively. […] The measurement was started 15 minutes after injection.
Several groups were organized: without the introduction of the substance, and with the introduction of a solution of morphine or peptide. After 15 from injection we conducted measurement in the following order:
Each animal tested was introduced into a round, not brightly lit arena. The surface is divided into square blocks of 10 cm each. We count locomotor activity of the mouse when it crossed the square. The movement of the mouse in the center of the arena and on the periphery, are recorded separately. We registered the number of times the mouse stands on its hind legs “stand” and the number of times the mouse looks into a “burrow”—ie. holes in the floor. Observations were done visually and were simultaneously entered into a computer using a keyboard (semi-automatic registration).

[4] = test system: rats; experiment: Hot plate test in rats; format: in vivo; conditions: for HPL, s (Mean ± SEM): hot plate 52° C.
Protocol: The “Hot Plate” test is based on the reflex that rat licking its' feet when the animal comes in contact with a hot surface. The device is a metal surface with a diameter of 30 cm whose temperature is controlled by software. The site is enclosed by a transparent fence with a height of 40 cm. The temperature of the metal pad was set at exactly 52° C. When placing the animal on the surface, you measure the time until the moment when the animal licks its' foot. When analgesics are administered, the time before the rat licks its' feet increases. The licking latency (HPL) of 40 seconds was used as the maximum allowable time of stimulation. The study was conducted on male rats weighing 160-180 g, 6 animals per dose.

[5] = test system: mice; conditions: published data, cited from earlier work
[6] = test system: mice; experiment: Acetic acid-induced writhing test in mice; format: in vivo; conditions: for Number of writhings, n (Mean ± SEM): 15 minutes count
Protocol: The acetic acid-induced writhing test is a model of a chemical nociceptive stimulus applied by the intraperitoneal injection of acetic acid solution.
Intraperitoneal injection of substances that irritate serous membranes in mice induces distinctive movements, including contractions of abdominal muscles followed by muscle relaxation, extension of the hind limbs and curving of the back, known as writhing. Mice were given an intraperitoneal injection of 1% acetic acid at a dose of 0.1 mL per 10 g body weight. After the injection the mice were placed in transparent acrylic chambers and counted the number of writhings in each animal for the next 15 minutes. The analgesic effect was evaluated by a reduction in the number of writhings in mice that received the study drug relative to the control group. […] Writhing onset latency in mice was used as an additional parameter for evaluating the efficacy of the substance in the acetic acid-induced writhing test.

opioid μ-receptors located on GPI, sequence (A0ACM8Q262 1-400): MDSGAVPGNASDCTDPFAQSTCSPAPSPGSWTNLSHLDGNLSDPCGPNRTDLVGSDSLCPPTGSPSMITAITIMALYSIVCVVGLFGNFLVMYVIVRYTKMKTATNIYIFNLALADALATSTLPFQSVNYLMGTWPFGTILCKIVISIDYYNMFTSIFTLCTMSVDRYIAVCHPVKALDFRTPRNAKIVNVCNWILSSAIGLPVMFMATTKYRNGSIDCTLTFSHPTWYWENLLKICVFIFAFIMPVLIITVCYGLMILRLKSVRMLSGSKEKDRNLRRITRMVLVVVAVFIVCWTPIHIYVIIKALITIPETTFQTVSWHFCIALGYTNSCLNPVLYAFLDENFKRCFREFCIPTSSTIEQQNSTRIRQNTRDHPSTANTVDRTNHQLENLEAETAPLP

H-Y[dR]FG-NH2 [TP1]
amplitude ([1]; concentration 1.0E−09 M): 38.7 | inhibit. effect ([1]; concentration 1.0E−09 M): 0.0% | amplitude ([1]; concentration 1.4E−06 M): 9.3 | inhibit. effect ([1]; concentration 1.4E−06 M): 76.6% | amplitude ([1]; concentration 1.4E−07 M): 23.0 | inhibit. effect ([1]; concentration 1.4E−07 M): 41.1% | amplitude ([1]; concentration 1.4E−08 M): 36.0 | inhibit. effect ([1]; concentration 1.4E−08 M): 7.0% | amplitude ([1]; concentration 4.0E−09 M): 38.7 | inhibit. effect ([1]; concentration 4.0E−09 M): 0.0% | amplitude ([1]; concentration 4.4E−07 M): 15.7 | inhibit. effect ([1]; concentration 4.4E−07 M): 61.1% | amplitude ([1]; concentration 4.4E−08 M): 30.3 | inhibit. effect ([1]; concentration 4.4E−08 M): 22.9% | analgesic action, times the activity of morphine [2]: more than 6 times

H-Y[dR]F[Sar]-OH [TP2]
amplitude ([1]; concentration 1.0E−09 M): 38.2 | inhibit. effect ([1]; concentration 1.0E−09 M): 0.0% | amplitude ([1]; concentration 1.4E−06 M): 8.6 | inhibit. effect ([1]; concentration 1.4E−06 M): 77.5% | amplitude ([1]; concentration 1.4E−07 M): 22.0 | inhibit. effect ([1]; concentration 1.4E−07 M): 42.4% | amplitude ([1]; concentration 1.4E−08 M): 35.3 | inhibit. effect ([1]; concentration 1.4E−08 M): 7.6% | amplitude ([1]; concentration 4.0E−09 M): 38.2 | inhibit. effect ([1]; concentration 4.0E−09 M): 0.0% | amplitude ([1]; concentration 4.4E−07 M): 15.2 | inhibit. effect ([1]; concentration 4.4E−07 M): 60.2% | amplitude ([1]; concentration 4.4E−08 M): 29.7 | inhibit. effect ([1]; concentration 4.4E−08 M): 22.2%

CN1CC[C@]23c4c5ccc(O)c4O[C@H]2[C@@H](O)C=C[C@H]3[C@H]1C5 [Morphine, reference compound]
physical activity reduced [3]: 50-70% | Proportion of the maximum possible effect (MPE), % ([4]; 5 mg/kg subcutaneous): 68.6% | HPL, s (Mean ± SEM) ([4]; 5 mg/kg subcutaneous): 27.45 ± 4.4 s | Proportion of the maximum possible effect (MPE), % ([4]; 15 mg/kg subcutaneous): 95.7% | HPL, s (Mean ± SEM) ([4]; 15 mg/kg subcutaneous): 38.31 ± 2.63 s | antinociceptive activity, % of MPE ([5]; dosage 7 mg/kg): 50% | antinociceptive activity, % of MPE ([5]; dosage 10 mg/kg): 75% | antinociceptive activity, % of MPE ([5]; dosage 20 mg/kg): 95% | % of mice w/o writhing ([6]; 1 mg/kg subcutaneous): 14.3% | Number of mice w/o writhing/number of mice in group ([6]; 1 mg/kg subcutaneous): 1/7 | Writhing onset latency, s (Mean ± SEM) ([6]; 1 mg/kg subcutaneous): 467.1 ± 74.41 s | Number of writhings, n (Mean ± SEM) ([6]; 1 mg/kg subcutaneous 40 minutes before acetic acid): 12.4 ± 3.73 n | % of mice w/o writhing ([6]; 3 mg/kg subcutaneous): 37.5% | Number of mice w/o writhing/number of mice in group ([6]; 3 mg/kg subcutaneous): 3/8 | Writhing onset latency, s (Mean ± SEM) ([6]; 3 mg/kg subcutaneous): 695.0 ± 85.00 s | Number of writhings, n (Mean ± SEM) ([6]; 3 mg/kg subcutaneous 40 minutes before acetic acid): 2.1 ± 0.83 n
